Test results reported in article PMC9610999, “Itraconazole-Induced Increases in Gilteritinib Exposure Are Mediated by CYP3A and OATP1B” (Molecules, 2022).
Like-named read-outs stand apart in the source and are kept apart here.

What was measured:
[1] = biological target: T1, human OATP1B1 (SLCO1B1) (Homo sapiens, UniProt Q9Y6L6); test: Transport inhibition assay: EβG uptake in OATP1B1 overexpressing HEK293 cells; assay type: cell-based
T1 construct: expressed in transfected cells; host or cells: HEK293
T1 sequence (Q9Y6L6 1-691): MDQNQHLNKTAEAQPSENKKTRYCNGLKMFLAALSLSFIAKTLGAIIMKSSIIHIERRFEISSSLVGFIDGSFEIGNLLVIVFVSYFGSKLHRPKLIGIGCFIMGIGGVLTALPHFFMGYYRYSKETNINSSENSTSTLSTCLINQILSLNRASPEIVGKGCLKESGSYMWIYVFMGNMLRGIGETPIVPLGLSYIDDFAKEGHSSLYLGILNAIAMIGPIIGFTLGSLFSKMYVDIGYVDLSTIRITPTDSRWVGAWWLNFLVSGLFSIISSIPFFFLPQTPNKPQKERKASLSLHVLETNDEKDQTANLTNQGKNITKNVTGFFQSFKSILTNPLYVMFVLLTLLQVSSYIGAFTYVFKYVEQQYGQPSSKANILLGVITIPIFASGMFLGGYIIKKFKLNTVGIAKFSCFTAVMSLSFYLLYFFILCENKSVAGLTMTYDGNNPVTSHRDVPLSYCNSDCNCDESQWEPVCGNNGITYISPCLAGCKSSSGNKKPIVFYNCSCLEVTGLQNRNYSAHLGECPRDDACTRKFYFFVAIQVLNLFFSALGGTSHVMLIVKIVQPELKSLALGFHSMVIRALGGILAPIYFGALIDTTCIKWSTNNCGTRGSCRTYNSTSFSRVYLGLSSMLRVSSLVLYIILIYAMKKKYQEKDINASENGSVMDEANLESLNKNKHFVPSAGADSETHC
Description: Human embryonic kidney (HEK293) cells stably transfected with human OATP1B1 (SLCO1B1) cDNA, or an empty control vector were established and cultured as previously described. Cells were maintained in DMEM supplemented with 10% FBS, 50 µg/mL hygromycin B, 15 µg/mL blasticidin, and maintained in a humidified incubator at 37 °C with 5% CO2. Prior to plating, 24-well tissue culture plates (Thermo Fisher Scientific) were coated with poly-d-lysine. Seeding media was prepared using phenol red-free DMEM with 10% FBS with no selection agents. To the seeding media, […] of doxycycline was added to induce expression of OATP1B1.
OATP1B1 overexpressing cells and vector control cells were plated in 24-well tissue culture plates at a volume of 0.5 mL (containing 2 × 10^6 cells/mL) per well. Plates were returned to an incubator at 37 °C and transport assays were conducted 24 h later. Transport activity was measured using EβG, a prototypical substrate of OATP1B1. Experiments were conducted using phenol red- and serum-free DMEM. Intracellular levels of total radioactivity originating from EβG were assessed by liquid scintillation counting. The resulting counts were normalized to total protein levels as determined by a Pierce protein assay. The influence of gilteritinib, itraconazole, keto-itraconazole, or hydroxy-itraconazole on OATP1B1-mediated transport was assessed following a 15 min pre-incubation at various concentrations of test inhibitors followed by co-incubation of test inhibitors with EβG. Inhibition of transport activity by gilteritinib was determined by comparing the accumulation of EβG in the presence of gilteritinib, itraconazole, keto-itraconazole, or hydroxy-itraconazole to that of EβG in the presence of only the control vehicle, DMSO. The final concentration of DMSO in media was less than 0.2% in all in vitro experiments.

[2] = biological target: T2, OATP1B2 (Mus musculus, UniProt Q9JJL3); test: Transport inhibition assay: 8-FcA uptake in OATP1B2 overexpressing HEK293 cells; assay type: cell-based; conditions: OATP1B2 overexpressing HEK293 cells vs vector control; fluorescent probe 8-FcA; read-out: IC50, inhibition of OATP1B2 function
T2 construct: expressed in transfected cells; host or cells: HEK293
T2 sequence (Q9JJL3 1-689): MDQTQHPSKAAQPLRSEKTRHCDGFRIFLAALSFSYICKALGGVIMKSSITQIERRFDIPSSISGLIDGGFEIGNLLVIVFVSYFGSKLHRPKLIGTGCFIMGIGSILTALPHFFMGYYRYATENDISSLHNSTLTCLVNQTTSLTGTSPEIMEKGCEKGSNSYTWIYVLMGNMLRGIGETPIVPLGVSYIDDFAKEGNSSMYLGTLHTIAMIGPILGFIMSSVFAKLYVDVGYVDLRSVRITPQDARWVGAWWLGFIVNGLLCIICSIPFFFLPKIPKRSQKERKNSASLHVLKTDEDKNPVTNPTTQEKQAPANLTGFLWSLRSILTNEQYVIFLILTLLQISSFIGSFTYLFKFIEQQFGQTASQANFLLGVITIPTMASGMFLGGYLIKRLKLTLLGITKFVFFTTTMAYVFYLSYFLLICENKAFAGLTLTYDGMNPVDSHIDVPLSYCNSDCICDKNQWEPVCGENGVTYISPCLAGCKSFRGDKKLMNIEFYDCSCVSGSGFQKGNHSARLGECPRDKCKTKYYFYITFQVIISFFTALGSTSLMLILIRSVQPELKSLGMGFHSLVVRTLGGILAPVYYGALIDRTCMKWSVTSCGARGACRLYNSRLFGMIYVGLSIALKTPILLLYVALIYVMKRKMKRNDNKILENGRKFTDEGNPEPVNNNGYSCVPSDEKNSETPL
Description: Transport inhibition assays using 8-(2-[fluoresceinyl]-aminoethylthio)-adenosine-3′,5′-cyclic-monophosphate (8-FcA) were completed as previously described. OAT1B2 overexpressing cells and vector control cells were grown to confluency in a 96-well plate. Cells were washed, then incubated for 15 min with 100 μL phenol red-free DMEM containing gilteritinib or vehicle (DMSO). The media was removed, then cells were incubated with 45 μL media containing 25 μM 8-FcA for 30 min. The media was removed and cells were washed three times with ice cold PBS. Fluorescence was measured on a plate reader at excitation and emission wavelengths of 485 and 535 nm, respectively. Cells were lysed with 0.2% nitric acid at 4 °C overnight and a Pierce protein assay was used to normalize the data to total protein.

[3] = set-up: method as in PMID 32546970; conditions: rats; cited from earlier work
[4] = cited from earlier work

CCc1nc(C(N)=O)c(Nc2ccc(N3CCC(N4CCN(C)CC4)CC3)c(OC)c2)nc1NC1CCOCC1 [Gilteritinib]
Mechanism of inhibition of OATP1B transport of EβG ([1]; Dixon plot): noncompetitively inhibits
IC50 ([1]; OATP1B1 overexpressing HEK293 cells vs vector control, radiolabeled EβG, 15 min pre-incubation, read-out: IC50, inhibition of OATP1B1-mediated cellular accumulation of EβG): 2.23 µM
Ki ([1]; gilteritinib 0.3–8.3 µM, EβG 0.2, 2, 20 µM, estimated, read-out: Ki (inhibition constant), EβG uptake by OATP1B1, Dixon plot): 1.6 µM
IC50 [2]: 1.83 µM
Increase in gilteritinib exposure by itraconazole [3]: 1.4 fold
Maximum tolerated dose ([4]; ref 4): 300 mg
Maximum tolerated dose ([4]; ref 29): 200 mg
